Results taken from article PMC7324608 (Scientific Reports, 2020).
Numbering of substitutions follows the chain as printed.

Columns and labels:
[1] = system: BbHtrA; parameters: method as in PMID 26480895; details: cited from earlier work
[2] = target: T1, HpHtrA S166A (Helicobacter pylori, UniProt G2J5T2, S166A); assay: thermal shift assay; assay type: binding; parameters: (HpHtrA, G18-K475, UniProt G2J5T2); GST (N, cleaved yes); made in house; host or cells: E. coli BL21
T1 sequence (G2J5T2 18-475 S166A): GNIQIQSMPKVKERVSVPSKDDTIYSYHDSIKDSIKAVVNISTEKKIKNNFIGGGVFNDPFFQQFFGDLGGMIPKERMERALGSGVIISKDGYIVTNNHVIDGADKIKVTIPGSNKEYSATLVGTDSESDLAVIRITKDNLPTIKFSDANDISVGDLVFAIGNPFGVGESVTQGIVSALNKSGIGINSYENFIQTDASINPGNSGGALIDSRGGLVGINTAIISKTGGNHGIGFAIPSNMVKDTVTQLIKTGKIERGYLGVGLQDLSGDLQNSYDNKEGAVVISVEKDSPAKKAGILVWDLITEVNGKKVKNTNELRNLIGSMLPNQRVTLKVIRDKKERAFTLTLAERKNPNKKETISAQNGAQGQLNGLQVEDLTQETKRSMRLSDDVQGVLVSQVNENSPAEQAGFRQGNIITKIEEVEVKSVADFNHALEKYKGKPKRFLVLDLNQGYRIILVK
Experimental: (§1) Recombinant HpHtrA proteins (wt, S164A, D165A, S166A, D168A) in 50 mM HEPES buffer (pH 7.4) were mixed with SYPRO Orange (Sigma-Aldrich, Vienna, Austria) to final concentrations of 4 µM HpHtrA and 7 × SYPRO Orange in a 96-well PCR plate. […] Fluorescence data was collected using an Applied Bioscience StepOne Plus PCR cycler (Thermo Fisher Scientific, Schwerte, Germany) during a temperature ramp from 25–95 °C (0.5 °C per min) with a 4 min hold at 25 °C and 95 °C. SYPRO Orange binds to exposed hydrophobic regions within the denatured HpHtrA proteins, which increases the fluorescence of the dye[57],[58]. The fluorescence emission signal can then be used to determine the melting temperature of the protein, which is located at the infliction point of the fluorescence signal curve. The experiment was performed in triplicates.

[3] = target: T2, HpHtrA wt (Helicobacter pylori, UniProt G2J5T2); assay: thermal shift assay; assay type: binding; parameters: (HpHtrA, G18-K475, UniProt G2J5T2); GST (N, cleaved yes); made in house; host or cells: E. coli BL21
T2 sequence (G2J5T2 18-475): T1 sequence (G2J5T2 18-475 S166A) with A149S
Experimental: as §1

[4] = target: T3, HpHtrA D168A (Helicobacter pylori, UniProt G2J5T2, D168A); assay: thermal shift assay; assay type: binding; parameters: (HpHtrA, G18-K475, UniProt G2J5T2); GST (N, cleaved yes); made in house; host or cells: E. coli BL21
T3 sequence (G2J5T2 18-475 D168A): T1 sequence (G2J5T2 18-475 S166A) with A149S, D151A
Experimental: as §1

[5] = target: T4, HpHtrA (Helicobacter pylori, UniProt G2J5T2); assay: in vitro casein cleavage by HpHtrA (Coomassie SDS-PAGE); assay type: biochemical; details: 10 µg casein, 250 ng HpHtrA, 16 h, 37 °C; for effect on HtrA-mediated casein degradation: 1 mM
T4 construct: (HpHtrA, G18-K475, UniProt G2J5T2); GST (N, cleaved yes); made in house; host or cells: E. coli BL21
T4 sequence (G2J5T2 18-475): T1 sequence (G2J5T2 18-475 S166A) with A149S
Excerpt: The proteins were separated by SDS-PAGE and visualized by staining with Coomassie Brilliant Blue G250 (Lactan, Vienna, Austria). […] Proteins were separated using SDS-PAGE and blotted onto a nitrocellulose membrane. Human Cdh1 was detected by an antibody recognizing the EC5 domain of hCdh1 (Abcam, Cambridge, UK) and a polyclonal serum was used to detect HpHtrA[22]. Independent experiments were repeated at least three times.

[6] = system: HtrA homolog A (HhoA); details: cited from earlier work
[7] = low/increasing concentrations of ion

Structure (SMILES) | effect on casein degradation by BbHtrA [1] | thermal destabilization (ΔTm) ([2]; compared with wt and S164A) | thermal destabilization (ΔTm) ([3]; HpHtrA wt, higher concentrations of ion) | thermal stabilization (ΔTm) ([3]; HpHtrA wt, low concentrations of ion) | thermal destabilization (ΔTm) ([4]; compared with wt and S164A) | concentration giving a slight inhibitory effect on casein cleavage [5] | effect on HtrA-mediated casein degradation [5] | effect on HhoA in a casein cleavage assay [6] | thermal stabilization (ΔTm) [2, 7] | concentration at which HpHtrA wt was stabilized ([3]; 4 µM HpHtrA wt, SYPRO Orange, 25–95 °C) | thermal stabilization (ΔTm) [4, 7] | IC100 ([5]; read-out: concentration required to fully inhibit casein cleavage)
[Cu+2] [Cu^++, CuCl2] | similarly inhibited | more strongly destabilized | destabilized | stabilized | more strongly destabilized | 250 µM | strongly inhibited |  |  |  |  | 
[Zn+2] [Zn^++, ZnCl2] | similarly inhibited |  |  |  |  | 250 µM | strongly inhibited | inactivates | did not stabilize | approximately 10 µM | did not stabilize | 500 to 1000 µM
